The NIST ThermoML archive (doi:10.1021/je900404r)

What was measured:
[1] = xn = mol fraction of the nth substance listed; settings: 101 kPa, Liquid, Vibrating tube method
[2] = 101 kPa, Liquid, Vibrating tube method

ClCCCCCl [1,4-dichlorobutane] + O=C1CCCCC1
mass density [kg/m3], [1]
Settings	x1 = 0.1063	x1 = 0.1969	x1 = 0.2901	x1 = 0.3808	x1 = 0.4803	x1 = 0.5814	x1 = 0.6763	x1 = 0.7751	x1 = 0.8849	x1 = 1
288.15 K	973.11	991.09	1009.39	1027.04	1046.24	1065.55	1083.46	1101.96	1122.33	1143.49
298.15 K	964	981.82	999.94	1017.42	1036.41	1055.52	1073.23	1091.52	1111.66	1132.57
308.15 K	954.86	972.51	990.46	1007.76	1026.55	1045.46	1062.97	1081.05	1100.96	1121.61
318.15 K	945.69	963.17	980.95	998.07	1016.66	1035.37	1052.68	1070.54	1090.21	1110.61

CCCCCl [1-chlorobutane]
[2]
Settings	mass density [kg/m3]
288.15 K	892.1
298.15 K	881.05
308.15 K	869.86
318.15 K	858.52

O=C1CCCCC1 [cyclohexanone] + CC(Cl)(Cl)Cl
[1], x2 = 0
Settings	mass density [kg/m3]
288.15 K	951.69
298.15 K	942.76
308.15 K	933.8
318.15 K	924.82

ClCCCCCl [1,4-dichlorobutane]
[2]
Settings	mass density [kg/m3]
288.15 K	1143.49
298.15 K	1132.57
308.15 K	1121.61
318.15 K	1110.61

ClC(Cl)C(Cl)Cl [1,1,2,2-tetrachloroethane]
[2]
Settings	mass density [kg/m3]
288.15 K	1604.75
298.15 K	1589.18
308.15 K	1573.57
318.15 K	1557.94

ClC(Cl)Cl [trichloromethane] + O=C1CCCCC1
mass density [kg/m3], [1]
Settings	x1 = 0.1198	x1 = 0.2362	x1 = 0.305	x1 = 0.4235	x1 = 0.5103	x1 = 0.6047	x1 = 0.6953	x1 = 0.8109	x1 = 0.9089	x1 = 1
288.15 K	1004.15	1058.19	1091.64	1151.88	1198.22	1250.45	1303.06	1372.1	1433.35	1491.86
298.15 K	994.58	1047.93	1080.94	1140.29	1185.89	1237.16	1288.8	1356.3	1416.12	1473.16
308.15 K	984.97	1037.61	1070.16	1128.62	1173.48	1223.78	1274.42	1340.36	1398.68	1454.07
318.15 K	975.32	1027.25	1059.32	1116.88	1160.97	1210.28	1259.9	1324.23	1381.01	1434.72

CCCCCl [1-chlorobutane] + O=C1CCCCC1
mass density [kg/m3], [1]
Settings	x1 = 0.1152	x1 = 0.2084	x1 = 0.3068	x1 = 0.4067	x1 = 0.5041	x1 = 0.5841	x1 = 0.692	x1 = 0.7881	x1 = 0.882	x1 = 1
288.15 K	945.58	940.43	934.95	929.27	923.6	918.86	912.28	906.18	900.11	892.1
298.15 K	936.47	931.18	925.51	919.65	913.78	908.86	902.02	895.71	889.37	881.05
308.15 K	927.34	921.88	916.03	909.97	903.89	898.78	891.68	885.12	878.54	869.86
318.15 K	918.17	912.54	906.5	900.22	893.92	888.63	881.25	874.42	867.57	858.52

ClC(Cl)Cl [trichloromethane]
[2]
Settings	mass density [kg/m3]
288.15 K	1491.86
298.15 K	1473.16
308.15 K	1454.07
318.15 K	1434.72

ClCCCCl [1,3-dichloropropane] + O=C1CCCCC1
mass density [kg/m3], [1]
Settings	x1 = 0.1276	x1 = 0.227	x1 = 0.3268	x1 = 0.4189	x1 = 0.514	x1 = 0.6112	x1 = 0.7147	x1 = 0.8103	x1 = 0.8979	x1 = 1
288.15 K	979.76	1001.99	1024.79	1046.27	1068.86	1092.38	1118.03	1142.26	1164.89	1191.93
298.15 K	970.5	992.46	1014.95	1036.15	1058.41	1081.63	1106.86	1130.71	1152.99	1179.58
308.15 K	961.22	982.9	1005.09	1025.99	1047.94	1070.82	1095.64	1119.11	1141.03	1167.16
318.15 K	951.9	973.3	995.19	1015.78	1037.41	1059.94	1084.36	1107.45	1128.99	1154.67

O=C1CCCCC1 [cyclohexanone] + ClC(Cl)Cl
[1], x2 = 0
Settings	mass density [kg/m3]
288.15 K	951.69
298.15 K	942.76
308.15 K	933.8
318.15 K	924.82
